From US11786540B2, “Gliflozins and a method for their delivery during resuscitation from cardiac arrest to improve survival outcomes” (Rosalind Franklin University of Medicine and Science, priority 2020, dated 2023)

Key:
[1] = test system: open-chest swine model of VF; assay: open-chest swine model of electrically-induced VF and simulated CPR using extracorporeal circulation; format: in vivo
Procedure: The studies were conducted in an open-chest swine model of electrically-induced VF and simulated CPR with controlled coronary blood flow (CBF) using extracorporeal circulation (ECC).^13,14 With a high degree of precision, the ECC model allowed subjecting the myocardium to low-flow reperfusion (as CPR does) after a period of ischemia during untreated VF (as it typically occurs in patients). The model reproduces adverse myocardial effects observed during CPR including increased myocardial wall thickness that is consistently ameliorated by NHE-1 inhibition. In addition, the model also reproduces post-resuscitation myocardial dysfunction which is also ameliorated by NHE-1 inhibition. In addition, the open-chest model allows for direct assessment of the myocardium via a micro-tip pressure transducer in the left ventricle to measure left ventricular pressure with high fidelity; a flow probe around the left anterior descending coronary artery to measure coronary blood flow as a surrogate of total myocardial blood flow; ultrasonic piezoelectric crystals to continuously measure the diameter (short-axis) and wall thickness of the left ventricle at the level of the mitral valve; and echocardiography to measure left ventricle volumes and wall thickness through a 4-chamber and 2-chamber views of the heart.
Therefore, we chose an EMPA dose expected to achieve a blood concentration of 1 μM after initial blood volume distribution in our swine model of VF and resuscitation by ECC. For this purpose, a stock solution was first prepared by dissolving 90.2 mg of EMPA (Sigma, St. Louis, Mo., MW 450.92) in 10 ml of 100% DMSO to obtain a 20 mM solution. This stock solution was diluted in saline to 200 μM. Given an estimated blood volume of 2.5 L for a 40-kg pig, 2.5 μmoles (i.e., 12.5 ml of the 200 μM solution) were given in bolus dose to attain the target blood concentration of 1 μM EMPA after initial blood volume distribution. […] Control pigs received 12.5 ml of 0.9% NaCl.
The bolus of EMPA or control solution was given at minute 9 of untreated VF through the venous port of the extracorporeal circuit. VF was maintained untreated for 10 minutes. ECC was then initiated and maintained for an additional 16 minutes. The ECC flow was titrated with the aid of a closed-loop system to generate and maintain a CBF of 25% of the baseline CBF, measured in the left anterior descending coronary artery.^20
Six male domestic pigs (38.2 to 43.3 kg) were fasted overnight, sedated with ketamine hydrochloride (30 mg/kg intramuscular), and anesthetized with propofol (2 mg/kg through an ear vein). The trachea was intubated with a size-7.5 orotracheal tube and positive pressure ventilation initiated with 50% oxygen using a volume-controlled ventilator (840 Ventilator System, Nellcor Puritan Bennett, Boulder, Colo.) set to deliver 10 mL/kg at a peak flow of 60 L/min with an FiO2 of 0.5. The respiratory rate was adjusted to attain an end-tidal PCO2 (PETCO2) between 38 and 42 mmHg. Anesthesia was maintained using isoflurane (1.75%-2.75%). Rectal temperature was maintained between 37.5 and 38.5° C. with a servo-controlled water-circulated blanket (Blanketrol II, Cincinnati Sub-Zero, Cincinnati, Ohio). The ECG signal was obtained during spontaneous circulation through leads placed on the right forelimb, left forelimb, and left hindlimb. During VF, the ECG signal was obtained through pads from a biphasic waveform defibrillator (E series; ZOLL Medical Corporation, Chelmsford, Mass.) placed on the shaved sides of the chest along the midaxillary line.
A 7 F fluid-filled catheter was advanced from the right femoral artery into the descending thoracic aorta to measure aortic pressure. A 7 F thermodilution balloon-tipped catheter was advanced through the right external jugular vein into the pulmonary artery to measure cardiac output, right atrial pressure, pulmonary artery pressure, and pulmonary artery occlusive pressure (Swan-Ganz, Edwards Lifesciences, Irvine, Calif.). […]

[2] = test system: closed-chest swine model of VF; format: in vivo
Procedure: We used a swine model of VF and conventional closed-chest resuscitation with survival up to 240 minutes. We conducted 16 experiments in which 8 were randomized to receive EMPA and 8 to vehicle control given intravenously immediately before starting CPR.
Domestic pigs (35.2 to 39.6 kg) were sedated, anesthetized, intubated, and started on mechanical ventilation as for the experiments in the open-chest model. For blood sampling and measuring aortic pressures, a 6F dual lumen pressure monitoring catheter (Langston, Vascular Solutions) was advanced through the right femoral artery past the bifurcation and into the descending thoracic aorta. For measuring left ventricular pressures, a 7F fluid-filled pigtail catheter (Langston, Vascular Solutions) was advanced through the surgically exposed right carotid artery and into the left ventricle. For blood sampling and for measuring core temperature, cardiac output by thermodilution technique, and pressures in the right atrium and pulmonary artery, a balloon-tipped pulmonary artery catheter (Swan-Ganz, Edwards Lifesciences, Irvine, Calif.) was advanced through the right external jugular vein and into the pulmonary artery. For induction of VF, a 5F pacing electrode was advanced through the right internal jugular vein into the right ventricle (FIG. 4).
VF was induced by delivering an alternating current (1-10 mA) to the right ventricular endocardium and left untreated without ventilation for 10 minutes. At the end of untreated VF, chest compressions were started using a mechanical compressor (Michigan Thumper Model 1007, Grand Rapids, Mich.) set to compress the chest at a rate of 100 per minute with its depth titrated attempting to generate an aortic diastolic pressure of at least 25 mmHg but without exceeding a maximum compression depth of 5 cm. Ventilation with 100% oxygen was delivered using a 350-ml self-inflating pediatric bag (Lifesaver Resuscitation Bags; Teleflex Medical, N.C.). Compressions and ventilations were delivered sequentially as recommended when the airway is un-protected. Accordingly, 30 chest compressions were delivered in 18 seconds followed by 2 breaths during a 6 second compression pause. Electrical shocks were delivered through the chest pads using a biphasic waveform defibrillator (R series Zoll Corp.) with the energy set at 200-J. Shocks were delivered guided by the likelihood of successful resuscitation using an algorithm developed by us based on real-time monitoring of the VF waveform in the frequency domain known as amplitude spectral area (AMSA).^24 Epinephrine (1 mg-bolus dose; 1 ml) was delivered through the pulmonary artery catheter into the right atrium and the line flushed with 10 ml of 0.9% NaCl. The timing of epinephrine delivery was based on an AMSA advisory criterion avoiding delivery if AMSA predicted a high likelihood of shock success within the ensuing 120 seconds, with a minimum interval between doses of 240 seconds. The purpose of AMSA advisory criteria was to minimize administration of epinephrine—given its known adverse post-resuscitation effects—if not required for successful resuscitation.^25,26 Animals that achieved ROSC received 0.9% NaCl (30 ml/kg) at the maximum pump rate (999 ml/h) and were monitored for up to 240 minutes, euthanizing those that survived by delivering a right atrial bolus of KCl (150 mg/kg).
For these experiments we used a higher EMPA dose corresponding to 0.5 mg/kg.
For this purpose, a stock solution was prepared by dissolving 90.2 mg of EMPA (Sigma, St. Louis, Mo., MW 450.92) in 8 ml of 100% DMSO to obtain a […] solution. This stock solution was diluted in saline to 5 mM. Given an estimated blood volume of 2.5 L for a 40-kg pig, 44.64 μmoles (i.e., 8.9 ml of the 5 mM solution) of EMPA was given in bolus dose into the right atrium immediately before starting CPR to attain the target blood concentration of 17.8 μM (0.8026 mg/di) after initial blood volume distribution. […]

[3] = test system: patients with type 2 diabetes; settings: cited from earlier work
isolated mice hearts = settings: cited from earlier work
[4] = test system: obese rats with diastolic dysfunction; settings: cited from earlier work
[5] = 25 mg oral dose in humans; cited from earlier work
isolated cardiomyocytes = settings: cited from earlier work
CaMKII = settings: 24 hours exposure; cited from earlier work
[6] = dose 0.5 mg/kg; cited from earlier work
ischemia-reperfusion = settings: rat and swine models of ischemia-reperfusion; cited from earlier work
[7] = test system: coronary occlusion and reperfusion; settings: rat, in vivo; cited from earlier work
[8] = test system: coronary occlusion and reperfusion; settings: oral, 24 hours and 2 hours before coronary occlusion; cited from earlier work
[9] = test system: swine model of cardiac arrest; settings: given immediately before starting CPR; cited from earlier work
[10] = vs control, statistically significant

With `OC[C@H]1O[C@@H](c2ccc(Cl)c(Cc3ccc(O[C@H]4CCOC4)cc3)c2)[C@H](O)[C@@H](O)[C@@H]1O` [EMPA, Empagliflozin] the “myocardial changes during the resuscitation effort” value ([1]; between EMPA and control groups) was “no myocardial differences”, the “increases in Tau, the relaxation time constant, post-resuscitation” value ([1]; developed in control animals) was “not observed” and the “progressive left ventricular wall thickening post-resuscitation” value ([1]; developed in control animals) was “not observed”. For the same compound, the “cumulative energy required to terminate VF” value ([1]; same in both groups) was 60 J, the “NE doses received post-resuscitation” value ([1]; vs control) was “lower” and the PETCO2 post-resuscitation ([1]; vs control) was “markedly higher”. For the same compound, the heart rate post-resuscitation ([1]; vs control, n=3 per group, not statistically significant) was “lower”, the MAP post-resuscitation ([1]; vs control, n=3 per group, statistically significant) was “statistically significant higher” and the “coronary vascular resistance post-resuscitation” value ([1]; vs control, did not achieve statistical significance) was “slightly lower”. The “LAD blood flow post-resuscitation” value [1, 10] was “substantially higher”, the cardiac index post-resuscitation [1, 10] was “markedly higher” and the “left ventricular stroke work index post-resuscitation” value [1, 10] was “higher”. For the same compound, the “stroke volume index post-resuscitation” value [1, 10] was “higher”, the “end-tidal PCO2 during CPR” value ([2]; 0.5 mg/kg, n=8, comparator 29±7) was 36±7 mmHg and the “left ventricular stroke work index post-resuscitation” value ([2]; vs comparator) was “higher”. The “mean arterial pressure post-resuscitation” value ([2]; vs comparator) was “lower”, the “stroke volume index post-resuscitation” value ([2]; vs comparator) was “higher” and the “systemic vascular resistance post-resuscitation” value ([2]; vs comparator) was “lower”. For the same compound, the cardiac index post-resuscitation ([2]; vs comparator, average of 120, 180, 240 min) was “higher”, the “pulmonary vascular resistance post-resuscitation” value ([2]; vs comparator, not shown) was “lower” and the “reduction in the relative risk of cardiovascular death” value [3] was 38%. The “risk reduction of hospitalization for heart failure” value [3] was 35%, the “onset of myocardial contracture during ischemia” value (isolated mice hearts; EMPA 1 μM, 18 minutes prior to ischemia and 25 minutes of ischemia) was “delayed” and the infarct size (isolated mice hearts; global ischemia and reperfusion) was “reduced”. The isovolumic relaxation time ([4]; after 30 minutes) was “improved”, the blood concentration ([4]; single EMPA injection, obese rats) was 8.68 µM and the blood concentration [5] was 0.69 µM. The “cytosolic sodium and cytosolic calcium” value (isolated cardiomyocytes) was “reductions”, the CaMKII activity (CaMKII) was “reduction” and the adverse effect [6] was “had not shown adverse effect”.
In the case of `Cc1ccc([C@@H]2O[C@H](CO)[C@@H](O)[C@H](O)[C@H]2O)cc1Cc1ccc(-c2ccc(F)cc2)s1` [canagliflozin], the “reductions in infarct size” value (ischemia-reperfusion) is given as “up to 60%”, the infarct size [7] is given as “reduced” and the “systolic and diastolic dysfunction” value [7] is given as “ameliorated”. For the same compound, the “stroke volume and cardiac output after reperfusion” value [8] was “better”.
For `CC(C)c1ccc(C(=O)NC(=N)N)cc1S(C)(=O)=O` [cariporide], the “myocardial wall thickening and reduction in left ventricular cavity size” value [9] is listed as “significant amelioration”.
